EC50 data for 25 compounds are collected here from patent US7737136B2 (N.V. Organon, priority 2002, dated 2010).

Assay [1] has as its target T1, human progesterone receptor-B (Homo sapiens, UniProt P06401).
T1 construct: expressed in transfected cells; host or cells: Chinese hamster ovary (CHO) cells, line CHO-PRB-pMMTV-LUC 1E2-A2
T1 sequence (P06401 1-933): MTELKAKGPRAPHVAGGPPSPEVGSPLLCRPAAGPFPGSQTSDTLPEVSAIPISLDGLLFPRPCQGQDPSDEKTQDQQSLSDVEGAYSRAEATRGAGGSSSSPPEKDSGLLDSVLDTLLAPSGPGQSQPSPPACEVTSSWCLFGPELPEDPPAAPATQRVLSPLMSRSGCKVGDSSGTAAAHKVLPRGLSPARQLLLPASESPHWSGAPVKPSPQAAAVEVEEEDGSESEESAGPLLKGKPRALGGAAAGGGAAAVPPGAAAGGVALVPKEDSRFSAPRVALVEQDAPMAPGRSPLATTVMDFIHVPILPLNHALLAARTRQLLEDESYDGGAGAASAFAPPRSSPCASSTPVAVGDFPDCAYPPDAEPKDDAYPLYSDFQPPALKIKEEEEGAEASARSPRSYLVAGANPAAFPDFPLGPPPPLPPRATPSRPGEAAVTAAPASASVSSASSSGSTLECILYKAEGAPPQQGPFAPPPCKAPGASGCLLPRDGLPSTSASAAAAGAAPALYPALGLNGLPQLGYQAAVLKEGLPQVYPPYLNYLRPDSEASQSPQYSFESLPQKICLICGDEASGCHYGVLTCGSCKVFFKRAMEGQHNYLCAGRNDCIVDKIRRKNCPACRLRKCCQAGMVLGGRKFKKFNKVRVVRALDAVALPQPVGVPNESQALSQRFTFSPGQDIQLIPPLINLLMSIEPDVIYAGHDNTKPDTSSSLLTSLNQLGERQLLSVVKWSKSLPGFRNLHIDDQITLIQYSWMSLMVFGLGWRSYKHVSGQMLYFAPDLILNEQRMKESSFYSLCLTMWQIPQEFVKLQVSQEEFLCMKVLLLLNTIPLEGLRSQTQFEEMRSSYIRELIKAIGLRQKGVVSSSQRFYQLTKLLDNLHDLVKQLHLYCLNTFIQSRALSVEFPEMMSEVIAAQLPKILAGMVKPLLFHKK
Put plainly: Progesterone receptor-B transactivation assay, antiprogestagenic activity (inhibition of luciferase transactivation induced by Org 2058). It counts as cell-based. The conditions noted are these: in the presence of 1 nM (16α)-16-ethyl-21-hydroxy-19-norpregn-4-ene-3,20-dione (Org 2058); read-out: Anti-progestagenic activity EC50. As for the experimental part: (§1) The (anti-)progestagenic activity of a compound of the invention (EC 50 and intrinsic activity) was determined in an in vitro bioassay of Chinese hamster ovary (CHO) cells stably transfected with the human progesterone receptor-B expression plasmid and with a reporter plasmid in which the MMTV-promoter is linked to the luciferase reporter gene. […] The cells were cultured with charcoal-treated supplemented defined bovine calf serum from Hyclone (Utah, USA) in Dulbecco's Modified Eagles Medium/Nutrient Mixture F-12 (DMEM/HAM F12 in ratio 1:1) from Gibco (Paisley, UK).

Assay [2] has as its target T1, human progesterone receptor-B. The assay can be described thus: Progesterone receptor-B transactivation assay, progestagenic (agonist) activity, CHO-PRB-pMMTV-LUC 1E2-A2 cells. It counts as cell-based. The conditions noted are these: CHO cells stably transfected with human progesterone receptor-B and MMTV-luciferase reporter; read-out: Progestagenic activity EC50. As to the method:
as §1

What is called EC50 is the concentration that produces a half-maximal response. For the compound `CC(C)(C)NC(=S)NC1CCCN2c3cc(Cl)ccc3Oc3ccccc3C12` (centres unmarked) [Example 35], the EC50 in assay [1] lay within 100 to 10000 nM. As to `S=C(NC1CCCCC1)N[C@H]1CCCN2c3cc(Cl)ccc3Oc3ccccc3[C@H]12` (relative stereo) [Example 33], the EC50 in assay [1] lay within 100 to 10000 nM. Regarding `O=C(NC1CCCN2c3cc(Cl)ccc3Oc3ccccc3C12)C(F)F` (stereo not drawn) [13 (1S14bR isomer)], the concentration for a half-maximal effect (EC50) in assay [1] and in assay [2] was below 10 nM each time.

With `COCCN[C@H]1CCCN2c3cc(Cl)ccc3Oc3ccccc3[C@H]12` (relative stereo) [Example 48, trans-7-Chloro-2,3,4,14b-tetrahydro-N-(2-methoxyethyl)-1H-dibenzo[b,f]pyrido[1,2-d][1,4]oxazepine-1-amine], the concentration for a half-maximal effect (EC50) in assay [1] was in the range of 10 to 100 nM; in assay [2] it was 100 to 10000 nM.

Take `O=C(N[C@H]1CCCN2c3cc(F)ccc3Oc3ccccc3[C@H]12)C(F)(F)F` (relative stereo) [Example 5, trans-2,2,2-Trifluoro-N-(7-fluoro-2,3,4,14b-tetrahydro-1H-dibenzo[b,f]pyrido[1,2-d][1,4]oxazepin-1-yl)acetamide]: the EC50 in assay [1] and in assay [2] was 100 to 10000 nM throughout. Consider `CC(C)(C)OC(=O)CN[C@H]1CCCN2c3cc(Cl)ccc3Sc3ccccc3[C@H]12` (relative stereo) [Example 49, 1,1-Dimetylethyl trans-2-[(7-chloro-2,3,4,14b-tetrahydro-1H-dibenzo[b,f]pyrido[1,2-d][1,4]thiazepin-1-yl)amino]acetate], for which the results for the EC50 in assay [1] and in assay [2] were 10 to 100 nM and 100 to 10000 nM, respectively.

Consider `CC(C)CNC(=S)N[C@H]1CCCN2c3cc(Cl)ccc3Oc3ccccc3[C@H]12` (relative stereo) [Example 32, trans-N-(7-Chloro-2,3,4,14b-tetrahydro-1H-dibenzo[b,f]pyrido[1,2-d][1,4]oxazepin-1-yl)-N′-(2-methylpropyl)thiourea], for which the EC50 in assay [1] fell in the range of 100 to 10000 nM. Consider `CC(=O)N[C@H]1CCCN2c3cc(Cl)ccc3Oc3ccccc3[C@H]12` (relative stereo) [Example 10, trans-N-(7-Chloro-2,3,4,14b-tetrahydro-1H-dibenzo[b,f]pyrido[1,2-d][1,4]oxazepin1-yl)acetamide], for which the EC50 in assay [1] and in assay [2] was 100 to 10000 nM each time. Consider `CC(=O)c1cc(F)cc2c1N1CCC[C@H](NC(=O)C(F)(F)F)[C@H]1c1ccccc1O2` (relative stereo) [Example 57, trans-N-(6-Acetyl-8-fluoro-2,3,4,14b-tetrahydro-1H-dibenzo[b,f]pyrido[1,2-d][1,4]oxazepin-1-yl)-2,2,2-trifluoroacetamide], for which the EC50 in assay [2] was below 10 nM. As for `O=C(N[C@H]1CCCN2c3cc(Cl)ccc3Cc3ccccc3[C@H]12)C(F)(F)F` (relative stereo) [Example 8, trans-N-(7-Chloro-1,2,3,4,10,14b-hexahydrodibenzo[c,f]pyrido[1,2-a]azepin-1-yl)-2,2,2-trifluoroacetamide], the figures for the EC50 in assay [1] and in assay [2] were 10 to 100 nM and below 10 nM, respectively. In the case of `FC(F)(F)C(=S)N[C@H]1CCCN2c3c(ccc(Cl)c3Cl)Oc3ccccc3[C@H]12` (relative stereo) [Example 26], the EC50 in assay [2] was below 10 nM. Same read-out and setting: next, `Cc1cc(F)cc2c1N1CCC[C@H](NC(=O)C(F)(F)F)[C@H]1c1ccccc1O2` (relative stereo) [Example 60, trans-2,2,2-Trifluoro-N-(8-fluoro-2,3,4,14b-tetrahydro-6-methyl-1H-dibenzo[b,f]pyrido-[1,2-d][1,4]oxazepin-1-yl)acetamide]: below 10 nM.

`FCC(=S)NC1CCCN2c3cc(Cl)ccc3Oc3ccccc3C12` [22 (1S,14bR isomer)]: in assay [1], the EC50 fell in the range of 10 to 100 nM. With `O=C(N[C@H]1CCCN2c3c(Br)cccc3Oc3ccccc3[C@H]12)C(F)(F)F` (relative stereo) [Example 51, trans-N-(6-Bromo-2,3,4,14b-tetrahydro-1H-dibenzo[b,f]pyrido[1,2-d][1,4]oxazepin-1-yl)-2,2,2-trifluoroacetamide], in assay [2], the EC50 is below 10 nM. As for `CC(=O)c1ccc2c(c1)N1CCC[C@H](NC(=O)C(F)(F)F)[C@H]1c1ccccc1O2` (relative stereo) [Example 62, trans-N-(7-Acetyl-2,3,4,14b-tetrahydro-1H-dibenzo[b,f]pyrido[1,2-d][1,4]oxazepin-1-yl)-2,2,2-trifluoroacetamide], in assay [2], the EC50 was 10 to 100 nM. On to `CC(=S)N[C@H]1CCCN2c3cc(Cl)ccc3Oc3ccccc3[C@H]12` (relative stereo) [Example 21], for which the EC50 in assay [1] lay within 100 to 10000 nM; in assay [2] it was 10 to 100 nM.

For `O=C(N[C@H]1CCCN2c3cc(Cl)ccc3Oc3cc(F)ccc3[C@H]12)C(F)(F)F` (relative stereo) [Example 74, trans-N-(7-Chloro-12-fluoro-2,3,4,14b-tetrahydro-1H-dibenzo[b,f]pyrido[1,2-d][1,4]oxazepin-1-yl)-2,2,2-trifluoroacetamide], in assay [2], the half-maximal effective concentration (EC50) is 10 to 100 nM. With `CN(C(=S)C(F)(F)F)C1CCCN2c3cc(Cl)ccc3Oc3ccccc3C12` (centres unmarked) [Example 24], the EC50 in assay [2] was 10 to 100 nM. For the compound `N=C(N[C@H]1CCCN2c3cc(Cl)ccc3Oc3ccccc3[C@H]12)C(F)(F)F` (relative stereo) [Example 29, trans-N-(7-Chloro-2,3,4,14b-tetrahydro-1H-dibenzo[b,f]pyrido[1,2-d][1,4]oxazepin-1-yl)-2,2,2-trifluoroacetimidamide], the EC50 in assay [1] and in assay [2] was 10 to 100 nM throughout. As to `CN1c2ccccc2[C@@H]2[C@@H](NC(=O)C(F)(F)F)CCCN2c2cc(Cl)ccc21` (relative stereo) [Example 76, trans-N-(7-Chloro-1,2,3,4,10,14b-hexahydro-10-methyl-dibenzo[b,f]pyrido[1,2-d][1,4]diazepin-1-yl)-2,2,2-trifluoroacetamide], in assay [2], the EC50 was below 10 nM. Turning to `O=C(N[C@H]1CCCN2c3cc(Cl)c(Cl)cc3Oc3ccccc3[C@H]12)C(F)(F)F` (relative stereo) [Example 38A, trans-N-(7,8-Dichloro-2,3,4,14b-tetrahydro-1H-dibenzo[b,f]pyrido[1,2-d][1,4]oxazepin-1-yl)-2,2,2-trifluoroacetamide], the EC50 in assay [1] was in the range of 100 to 10000 nM; in assay [2], 10 to 100 nM. Regarding `C=Cc1ccc2c(c1)N1CCC[C@H](NC(=O)C(F)(F)F)[C@H]1c1ccccc1O2` (relative stereo) [Example 64, trans-N-(7-Ethenyl-2,3,4,14b-tetrahydro-1H-dibenzo[b,f]pyrido[1,2-d][1,4]oxazepin-1-yl)-2,2,2-trifluoroacetamide], the EC50 in assay [2] lay within 100 to 10000 nM. As to `CC(=O)c1cccc2c1N1CCC[C@H](NC(=O)C(F)(F)F)[C@H]1c1ccccc1O2` (relative stereo) [Example 52, trans-N-(6-Acetyl-2,3,4,14b-tetrahydro-1H-dibenzo[b,f]pyrido[1,2-d][1,4]oxazepin-1-yl)-2,2,2-trifluoroacetamide], in assay [2], the EC50 was below 10 nM. For the compound `O=C(N[C@H]1CCCN2c3cc(Cl)ccc3Oc3ccccc3[C@H]12)C(F)F` [Example 13], the EC50 in assay [2] fell in the range of 10 to 100 nM. For the compound `O=C(N[C@H]1CCCN2c3cc(Cl)c(Br)cc3Oc3ccccc3[C@H]12)C(F)(F)F` (relative stereo) [Example 39, trans-N-(8-Bromo-7-chloro-2,3,4,14b-tetrahydro-1H-dibenzo[b,f]pyrido[1,2-d][1,4]oxazepin-1-yl)-2,2,2-trifluoroacetamide], the EC50 in assay [1] and in assay [2] was 100 to 10000 nM throughout.
